According to patent US20160282364A1, “ASSAY FOR INSULIN-DEGRADING ENZYME (IDE) INHIBITORS” (PRESIDENT AND FELLOWS OF HARVARD COLLEGE, priority 2013, published 2016):

Key:
C57BL/6J mice = test: Tolerability of inhibitor doses in mice; assay type: in vivo; details: 80 mg/kg lean, 60 mg/kg DIO mice, i.p.
Excerpt: In vivo studies, general information. Wild-type C57BL/6J and diet-induced obese (DIO) C57BL/6J age-matched male adult mice were purchased from Jackson Laboratories. The age range was 13 to 15 weeks for lean mice, and 24 to 26 weeks for DIO mice. All animals were individually housed on a 14-h light, 10-h dark schedule at the Biology Research Infrastructure (BRI), Harvard University. Cage enrichment included cotton bedding and a red plastic hut. Water and food were available ad libitum, consisting respectively of normal chow (Prolab® RHM 3000) or high-fat diet (60 kcal % fat, D12492, Research Diets Inc.). All animal care and experimental procedures were in accordance with the standing committee on the Use of Animals in Research and Teaching at Harvard University, the guidelines and rules established by the Faculty of Arts and Sciences' Institutional Animal Care and Use Committee (IACUC), and the National Institutes of Health Guidelines for the Humane Treatment of Laboratory Animals. Glucagon-receptor knock-out (GCGR^−/−) mice were housed with a 14-h light and 10-h dark schedule and treated in accordance with the guidelines and rules approved by the IACUC at Albert Einstein College of Medicine, NY. Power analysis to determine animal cohort numbers was based on preliminary results and literature precedent, usually requiring between 5 and 8 animals per group. […]

[1] = Plasma stability (1 h incubation); assay type: in vitro ADME; details: after 1 h

## NCCCC[C@@H]1NC(=O)/C=C/C(=O)N[C@H](C(N)=O)CCCCNC(=O)[C@@H](Cc2ccc(C(=O)c3ccccc3)cc2)NC(=O)[C@H](CC2CCCCC2)NC1=O [Compound 6bK]
C57BL/6J mice
  tolerability: well tolerated
[1]
  remaining after incubation with plasma: 74%
